This is an account of results in patent publication US20250179061A1 (SIRONAX LTD., priority 2022, published 2025).

SMILES strings stand for the structures. Like-named read-outs stand apart in the source and are kept apart here. Bounds are passed on as bounds.

The subject of the experiment is HT-29 cells. As to the kind of experiment: HT-29 necroptosis cell viability assay (TNF-α/SMAC mimetic/zVAD-FMK, CellTiter-Glo). It is filed as cell-based. The note with it: Homo sapiens. In short, it runs like this: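 HT-29 cells (~5,000/well, overnight) in FBS-free McCoy's 5A with TNF-α 10 ng/ml, SMAC mimetic 6 μM and zVAD-FMK 10 μM plus 10-point 1:3 compound titration, 20 h at 37°C. ATP measured by CellTiter-Glo luminescence; IC50 as geometric mean of duplicates.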

Where [1] appears, read: HT-29, HT-29 necroptosis cell viability assay, class symbols for IC50, read-out: Activity.
[2] abbreviates: HT-29, HT-29 cells, necroptosis induced by TNF-α/SMAC mimetic/zVAD-FMK, CellTiter-Glo, read-out: Activity (IC50 class).
[3] abbreviates: HT-29, HT-29 necroptosis cell viability, IC50 class symbols, read-out: Activity.
The mark [4] stands for this setting: HT-29 cells stimulated with TNF-α (10 ng/ml), SMAC mimetic (6 μM) and zVAD-FMK (10 μM), 20 hours, CellTiter-Glo ATP luminescence, geometric mean IC50 from 10 points, read-out: Activity.

As for `COC1(C)CN(c2cc(Oc3ccc(-n4ncn(Cc5c(F)cccc5F)c4=O)cc3)ccn2)C1` [Example 500, 4-(2,6-difluorobenzyl)-2-(4-((2-(3-methoxy-3-methylazetidin-1-yl)pyridin-4-yl)oxy)phenyl)-2,4-dihydro-3H-1,2,4-triazol-3-one], the IC50 under setting [1] was under 100 nM.
On to `COC(=O)c1nc(C)c(Oc2ncc(-n3ncn(Cc4c(F)cccc4F)c3=O)cc2Cl)s1` [Example 649, methyl 5-((3-chloro-5-(4-(2,6-difluorobenzyl)-5-oxo-4,5-dihydro-1H-1,2,4-triazol-1-yl)pyridin-2-yl)oxy)-4-methylthiazole-2-carboxylate], for which the IC50 under setting [2] is under 100 nM.
Consider `Cc1nn(Cc2ccc(-n3ncn(Cc4c(F)cccc4F)c3=O)cc2)cc1Br` [Example 184, 2-(4-((4-bromo-3-methyl-1H-pyrazol-1-yl)methyl)phenyl)-4-(2,6-difluorobenzyl)-2,4-dihydro-3H-1,2,4-triazol-3-one], for which the IC50 under setting [1] is under 100 nM.
On to `Cc1c(C#N)noc1Oc1ccc(-n2ncn(Cc3c(F)cccc3F)c2=O)cc1F` [Example 475, 5-(4-(4-(2,6-difluorobenzyl)-5-oxo-4,5-dihydro-1H-1,2,4-triazol-1-yl)-2-fluorophenoxy)-4-methylisoxazole-3-carbonitrile], for which the IC50 under setting [3] is under 100 nM.
With `O=c1n(Cc2c(F)cccc2F)cnn1-c1ccc(S(=O)(=O)c2ccnc(N3CCC3)c2)cc1` [Example 350, 2-(4-((2-(azetidin-1-yl)pyridin-4-yl)sulfonyl)phenyl)-4-(2,6-difluorobenzyl)-2,4-dihydro-3H-1,2,4-triazol-3-one], the IC50 under setting [3] is under 100 nM.
For `COC1(C#N)CN(c2nc(C)c(Oc3ccc(-n4ncn(Cc5c(F)cccc5F)c4=O)cc3)s2)C1` [Example 55, 1-(5-(4-(4-(2,6-difluorobenzyl)-5-oxo-4,5-dihydro-1H-1,2,4-triazol-1-yl)phenoxy)-4-methylthiazol-2-yl)-3-methoxyazetidine-3-carbonitrile], under setting [4], the IC50 was under 100 nM.
Turning to `C[C@H]1CCCN1c1cc(Oc2ccc(-n3ncn(Cc4c(F)cccc4F)c3=O)cc2F)c(F)cn1` [Example 297, (S)-4-(2,6-difluorobenzyl)-2-(3-fluoro-4-((5-fluoro-2-(2-methylpyrrolidin-1-yl)pyridin-4-yl)oxy)phenyl)-2,4-dihydro-3H-1,2,4-triazol-3-one], the IC50 under setting [3] is under 100 nM.
Take `O=C1CC2(CCOCC2)CN1c1cc(Oc2ccc(-n3ncn(Cc4c(F)cccc4F)c3=O)cc2)ccn1` [Example 482, 2-(4-(4-(4-(2,6-difluorobenzyl)-5-oxo-4,5-dihydro-1H-1,2,4-triazol-1-yl)phenoxy)pyridin-2-yl)-8-oxa-2-azaspiro[4.5]decan-3-one]: the IC50 under setting [1] lay in the range of 100 to 1000 nM.
In the case of `Cn1nc(C(N)=O)nc1Oc1ccc(-n2nc3n(c2=O)[C@H](c2ccccc2)CC3)cc1F` (single isomer, unassigned) [Example 692], the IC50 under setting [4] was under 100 nM.
Regarding `C[C@H]1COCCN1c1cc(Oc2ccc(-n3ncn(Cc4c(F)cccc4F)c3=O)cc2)ccn1` [Example 244, (S)-4-(2,6-difluorobenzyl)-2-(4-((2-(3-methylmorpholino)pyridin-4-yl)oxy)phenyl)-2,4-dihydro-3H-1,2,4-triazol-3-one], the IC50 under setting [3] lay in the range of 100 to 1000 nM.
Same read-out and setting: to `Cc1c(Oc2ccc(-n3ncn(Cc4c(F)cccc4F)c3=O)cc2)ccnc1N1CC2(CCOCC2)C1` [Example 273, 4-(2,6-difluorobenzyl)-2-(4-((3-methyl-2-(7-oxa-2-azaspiro[3.5]nonan-2-yl)pyridin-4-yl)oxy)phenyl)-2,4-dihydro-3H-1,2,4-triazol-3-one] belongs 100 to 1000 nM.
Consider `NC(=O)c1ncc(Oc2ccc(-n3nc4n(c3=O)[C@H](c3ccccc3)CC4)cc2F)s1` (single isomer, unassigned) [Example 670], for which, under setting [2], the IC50 was under 100 nM.
With `CC1(C#N)CN(c2cccnc2OCc2ccc(-n3ncn(Cc4c(F)cccc4F)c3=O)cc2)C1` [Example 286, 1-(2-((4-(4-(2,6-difluorobenzyl)-5-oxo-4,5-dihydro-1H-1,2,4-triazol-1-yl)benzyl)oxy)pyridin-3-yl)-3-methylazetidine-3-carbonitrile], the IC50 under setting [3] fell in the range of 100 to 1000 nM.
In the case of `Cc1nn(C2COC2)c(C)c1Oc1ccc(-n2ncn(Cc3c(F)cccc3F)c2=O)cc1F` [Example 177, 4-(2,6-difluorobenzyl)-2-(4-((3,5-dimethyl-1-(oxetan-3-yl)-1H-pyrazol-4-yl)oxy)-3-fluorophenyl)-2,4-dihydro-3H-1,2,4-triazol-3-one], the IC50 under setting [1] is under 100 nM.
Turning to `CC1(CO)CCN(c2cc(Oc3ccc(-n4ncn(Cc5c(F)cccc5F)c4=O)cc3)ccn2)C1` (centres unmarked) [Example 265, 4-(2,6-difluorobenzyl)-2-(4-((2-(3-(hydroxymethyl)-3-methylpyrrolidin-1-yl)pyridin-4-yl)oxy)phenyl)-2,4-dihydro-3H-1,2,4-triazol-3-one], the IC50 under setting [3] lay in the range of 100 to 1000 nM.
Take `CC1(C#N)CCN(c2cc(Oc3ccc(-n4ncn(Cc5c(F)cccc5F)c4=O)cc3F)c(F)cn2)C1` (centres unmarked) [Example 394, 1-(4-(4-(4-(2,6-difluorobenzyl)-5-oxo-4,5-dihydro-1H-1,2,4-triazol-1-yl)-2-fluorophenoxy)-5-fluoropyridin-2-yl)-3-methylpyrrolidine-3-carbonitrile]: under setting [3], the IC50 is under 100 nM.
Consider `Cc1nc(C(N)C(F)(F)F)sc1Oc1ccc(-n2ncn(Cc3c(F)cccc3F)c2=O)cc1F` (centres unmarked) [Example 651, 2-(4-((2-(1-amino-2,2,2-trifluoroethyl)-4-methylthiazol-5-yl)oxy)-3-fluorophenyl)-4-(2,6-difluorobenzyl)-2,4-dihydro-3H-1,2,4-triazol-3-one], for which the IC50 under setting [2] is 100 to 1000 nM.
With `Cc1nc(C(N)=O)sc1Oc1ncc(-n2nc3n(c2=O)[C@@H](c2ccccc2)CC3)cc1F` (single isomer, unassigned) [Example 639], under setting [2], the IC50 was in the range of 100 to 1000 nM.
With `Cc1nc(C(N)=O)sc1Oc1ccc(-n2nc3n(c2=O)[C@H](c2ccccc2)CC3)cc1Cl` (single isomer, unassigned) [Example 16], under setting [4], the IC50 was under 100 nM.
`O=c1n(Cc2c(F)cccc2F)cnn1-c1ccc(Oc2ccncc2Br)cc1` [Example 432, 2-(4-((3-bromopyridin-4-yl)oxy)phenyl)-4-(2,6-difluorobenzyl)-2,4-dihydro-3H-1,2,4-triazol-3-one]: under setting [3], the IC50 is under 100 nM.
Same read-out and setting: to `CCOC1CN(c2nccc(Cl)c2Oc2ccc(-n3nc(C)n(Cc4ccccc4)c3=O)cc2)C1` [Example 305, 4-benzyl-2-[4-[[4-chloro-2-(3-ethoxyazetidin-1-yl)-3-pyridyl]oxy]phenyl]-5-methyl-1,2,4-triazol-3-one] belongs 100 to 1000 nM.
`O=C(CC1CC1)Nc1cc(Oc2ccc(-n3ncn(Cc4c(F)cccc4F)c3=O)cc2)ccn1` [Example 520, 2-cyclopropyl-N-[4-[4-[4-[(2,6-difluorophenyl)methyl]-5-oxo-1,2,4-triazol-1-yl]phenoxy]-2-pyridyl]acetamide]: under setting [1], the IC50 lay in the range of 100 to 1000 nM.
For `CCOC1(C)CN(c2cc(Oc3ccc(-n4ncn(Cc5c(F)cccc5F)c4=O)cc3Cl)c(Cl)cn2)C1` [Example 504, 2-(3-chloro-4-((5-chloro-2-(3-ethoxy-3-methylazetidin-1-yl)pyridin-4-yl)oxy)phenyl)-4-(2,6-difluorobenzyl)-2,4-dihydro-3H-1,2,4-triazol-3-one], the IC50 under setting [1] is under 100 nM.
